Data on 35 compounds can be found in patent US20220062243A1, “P14-Kinase Inhibitors with Anti-Cancer Activity” (The Board of Trustees of the Leland Stanford Junior …, priority 2019, published 2022).

This test deals with PI4K-IIIβ (Homo sapiens, UniProt Q9UBF8). Nature of the test: PI-kinase assay (membrane capture assay for lipid kinase activity), PI4KIIIβ. It is filed as biochemical. The following applies: read-out: PI4KIIIβ kinase activity (IC50 class). As to the method:
PI4-kinase inhibition can be determined by a kinase activity assay, e.g., by an assay that determines the level of incorporation of radiolabeled phosphate from [γ-^32P]-ATP into a substrate molecule after treatment with a subject compound, relative to a control, by measuring the beta-particle emission rate using a scintillation counter or phosphorimaging.
PI-kinase assay: Compounds are tested in C.1.1. PI kinase assays as described by Shokat et al., “A membrane capture assay for lipid kinase activity.” Nat. Protoc. […] Selected compounds of Table 1 and 2 were prepared and tested for inhibition activity in a variety of kinase assays.

Molecules are shown by their SMILES. Where only a bound is given, the exact number is not on record here.

Chain of PI4K-IIIβ (Q9UBF8 whole entry): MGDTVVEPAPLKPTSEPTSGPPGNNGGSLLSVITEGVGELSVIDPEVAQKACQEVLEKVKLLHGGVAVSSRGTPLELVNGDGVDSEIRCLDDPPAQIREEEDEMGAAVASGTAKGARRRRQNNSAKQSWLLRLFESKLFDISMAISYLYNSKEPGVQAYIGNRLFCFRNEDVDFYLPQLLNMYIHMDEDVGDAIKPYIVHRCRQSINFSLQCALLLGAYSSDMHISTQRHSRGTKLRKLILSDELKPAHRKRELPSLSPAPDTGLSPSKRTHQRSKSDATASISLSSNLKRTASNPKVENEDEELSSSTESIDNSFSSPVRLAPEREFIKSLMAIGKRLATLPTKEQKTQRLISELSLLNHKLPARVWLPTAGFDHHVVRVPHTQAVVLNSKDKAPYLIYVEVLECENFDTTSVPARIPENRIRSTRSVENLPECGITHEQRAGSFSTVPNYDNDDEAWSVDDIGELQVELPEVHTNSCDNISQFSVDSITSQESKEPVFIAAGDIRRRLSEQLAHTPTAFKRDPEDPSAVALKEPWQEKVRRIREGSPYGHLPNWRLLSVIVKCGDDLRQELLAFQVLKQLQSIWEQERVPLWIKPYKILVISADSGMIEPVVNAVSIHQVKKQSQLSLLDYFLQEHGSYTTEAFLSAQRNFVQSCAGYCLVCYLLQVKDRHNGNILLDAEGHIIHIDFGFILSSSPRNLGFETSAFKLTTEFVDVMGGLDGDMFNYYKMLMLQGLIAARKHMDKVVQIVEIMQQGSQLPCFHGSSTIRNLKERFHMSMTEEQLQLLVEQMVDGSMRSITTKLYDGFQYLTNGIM

For the compound `COc1ccc(-c2sc(NC(=O)CC3CCOCC3)nc2C)cc1S(=O)(=O)Nc1ccc(O)cc1C` [Compound S-231, N-[5-[3-[(4-hydroxy-2-methyl-phenyl)sulfamoyl]-4-methoxy-phenyl]-4-methyl-thiazol-2-yl]-2-tetrahydropyran-4-yl-acetamide], the half-maximal inhibitory concentration (IC50) was less than 100 nM. The result for `COc1ccc(-c2sc(NCCC3CCCCC3)nc2C)cc1S(=O)(=O)NC1CCNCC1` [Compound S-202, 5-[2-(2-cyclohexylethylamino)-4-methyl-thiazol-5-yl]-2-methoxy-N-(4-piperidyl)benzenesulfonamide] reads less than 100 nM; that for `COc1ccc(-c2sc(N[C@H](C)C3CCCCC3)nc2C)cc1S(=O)(=O)N[C@H]1CC[C@H](O)CC1` [Compound S-193, 5-[2-[[(1R)-1-cyclohexylethyl]amino]-4-methyl-thiazol-5-yl]-N-(4-hydroxycyclohexyl)-2-methoxy-benzenesulfonamide], less than 100 nM; that for `COc1ccc(-c2sc(NC(=O)CC3CCCC3)nc2C)cc1S(=O)(=O)NC1CCCNC1` (centres unmarked) [Compound S-173, 2-cyclopentyl-N-[5-[4-methoxy-3-(3piperidylsulfamoyl)phenyl]-4-methyl-thiazol-2-yl]acetamide;2,2,2-trifluoroacetic acid], less than 100 nM. With `COc1ccc(-c2sc(NC(C)(C)C)nc2C)cc1S(=O)(=O)N[C@H]1CC[C@H](O)CC1` [Compound S-216, 5-[2-(tert-butylamino)-4-methyl-thiazol-5-yl]-N-(4-hydroxycyclohexyl)-2-methoxy-benzenesulfonamide], the IC50 was less than 100 nM. Turning to `COc1ccc(-c2sc(N[C@H](C)C3CCCCC3)nc2C)cc1S(=O)(=O)N[C@H]1CCNC1` [Compound S-201, 5-[2-[[(1R)-1-cyclohexylethyl]amino]-4-methyl-thiazol-5-yl]-2-methoxy-N-[(3S)-pyrrolidin-3-yl]benzenesulfonamide], the IC50 was less than 100 nM. In the case of `COc1ccc(-c2sc(NC3CCCCC3)nc2C)cc1S(=O)(=O)NC1CCCCCC1` [Compound S-131, N-cycloheptyl-5-[2-(cyclohexylamino)-4-methyl-thiazol-5-yl]-2-methoxy-benzenesulfonamide] it was 100 to 1000 nM. In the case of `COc1ccc(-c2sc(NC(C)C)nc2C)cc1S(=O)(=O)N[C@H]1CC[C@H](O)CC1` [Compound S-215, N-(4-hydroxycyclohexyl)-5-[2-(isopropylamino)-4-methyl-thiazol-5-yl]-2-methoxy-benzenesulfonamide] it was less than 100 nM; in that of `COc1ccc(-c2sc(NC(C)(C)C)nc2C)cc1S(=O)(=O)NC1CCCC(O)C1` (centres unmarked) [Compound S-218, 5-[2-(tert-butylamino)-4-methyl-thiazol-5-yl]-N-(3-hydroxycyclohexyl)-2-methoxy-benzenesulfonamide], less than 100 nM. The result for `COc1ccc(-c2sc(N[C@@H](C)C3CCCCC3)nc2C)cc1S(=O)(=O)N[C@H]1CC[C@H](O)CC1` [Compound S-183, 5-[2-[[(1S)-1-cyclohexylethyl]amino]-4-methyl-thiazol-5-yl]-N-(4-hydroxycyclohexyl)-2-methoxy-benzenesulfonamide] reads less than 100 nM. For the compound `COc1ccc(-c2sc(NC(C)(C)C)nc2C)cc1S(=O)(=O)NC1CCNCC1` [Compound S-219, 5-[2-(tert-butylamino)-4-methyl-thiazol-5-yl]-2-methoxy-N-(4-piperidyl)benzenesulfonamide], the IC50 is less than 100 nM. The result for `Cc1ccc(-c2sc(NC(=O)CC3CCCC3)nc2C)cc1S(=O)(=O)NC1CCNCC1` [Compound S-188, 2-cyclopentyl-N-[4-methyl-5-[4-methyl-3-(4-piperidylsulfamoyl)phenyl]thiazol-2-yl]acetamide] reads less than 100 nM; that for `COc1ccc(-c2sc(NCC(C)C)nc2C)cc1S(=O)(=O)N[C@H]1CC[C@@H](O)CC1` [Compound S-222, N-(4-hydroxycyclohexyl)-5-[2-(isobutylamino)-4-methyl-thiazol-5-yl]-2-methoxy-benzenesulfonamide], less than 100 nM. The result for `COc1ccc(-c2sc(NC(=O)CC3CCOCC3)nc2C)cc1S(=O)(=O)Nc1ccc(O)cc1` [Compound S-227, N-[5-[3-[(4-hydroxyphenyl)sulfamoyl]-4-methoxy-phenyl]-4-methyl-thiazol-2-yl]-2-tetrahydropyran-4-yl-acetamide] reads less than 100 nM; that for `COc1ccc(-c2sc(NC3CCCCC3)nc2C)cc1S(=O)(=O)N[C@H]1CC[C@@H](O)CC1` [Compound S-167, 5-[2-(cyclohexylamino)-4-methyl-thiazol-5-yl]-N-(4-hydroxycyclohexyl)-2-methoxy-benzenesulfonamide], less than 100 nM; that for `COc1ccc(-c2sc(N[C@H](C)CC3CCCCC3)nc2C)cc1S(=O)(=O)NC1CCNCC1` [Compound S-145, 5-[2-[[(1R)-2-cyclohexyl-1-methyl-ethyl]amino]-4-methyl-thiazol-5-yl]-2-methoxy-N-(4-piperidyl)benzenesulfonamide], less than 100 nM.

For `COc1ccc(-c2sc(N[C@H](C)C3CCCCC3)nc2C)cc1S(=O)(=O)N[C@H]1CC[C@@H](O)CC1` [Compound S-198, 5-[2-[[(1R)-1-cyclohexylethyl]amino]-4-methyl-thiazol-5-yl]-N-(4-hydroxycyclohexyl)-2-methoxy-benzenesulfonamide], the IC50 lay within 100 to 1000 nM. Turning to `COc1ccc(-c2sc(NC(=O)CC3CCCC3)nc2C)cc1S(=O)(=O)NCCCCO` [Compound S-152], the IC50 was less than 100 nM. With `COc1ccc(-c2sc(NC(=O)CC3CCCC3)nc2C)cc1S(=O)(=O)Nc1ccc(O)cc1` [Compound S-1, 2-cyclopentyl-N-[5-[3-[(4-hydroxyphenyl)sulfamoyl]-4-methoxy-phenyl]-4-methyl-thiazol-2-yl]acetamide], the IC50 is less than 100 nM. The result for `COc1ccc(-c2sc(NC(=O)CC3CCOCC3)nc2C)cc1S(=O)(=O)Nc1cccc(C)c1` [Compound S-226, N-[5-[4-methoxy-3-(m-tolylsulfamoyl)phenyl]-4-methyl-thiazol-2-yl]-2-tetrahydropyran-4-yl-acetamide] reads less than 100 nM; that for `COc1ncc(-c2sc(NC(=O)CC3CCOCC3)nc2C)cc1S(=O)(=O)NC1CCCC(O)C1` (centres unmarked) [Compound S-263], less than 100 nM; that for `COc1ccc(-c2sc(NC3CCCCC3)nc2C)cc1S(=O)(=O)N[C@H]1CC[C@H](O)CC1` [Compound S-166, 5-[2-(cyclohexylamino)-4-methyl-thiazol-5-yl]-N-(4-hydroxycyclohexyl)-2-methoxy-benzenesulfonamide], less than 100 nM.

As to `COc1ccc(-c2sc(NC(=O)C3CCCC3)nc2C)cc1S(=O)(=O)Nc1ccc(CO)cc1` [Compound S-41, N-[5-[3-[[4-(hydroxymethyl)phenyl]sulfamoyl]-4-methoxy-phenyl]-4-methyl-thiazol-2-yl]cyclopentanecarboxamide], the IC50 is less than 100 nM. As for `COc1ccc(-c2sc(NCC3CCCCC3)nc2C)cc1S(=O)(=O)NC1CCN(C2CC2)CC1` [Compound S-135, 5-[2-(cyclohexylmethylamino)-4-methyl-thiazol-5-yl]-N-(1-cyclopropyl-4-piperidyl)-2-methoxy-benzenesulfonamide], the IC50 was less than 100 nM. As for `COc1ccc(-c2sc(NC3CCCCC3)nc2C)cc1S(=O)(=O)NC1CCCC1` [Compound S-129, 5-[2-(cyclohexylamino)-4-methyl-thiazol-5-yl]-N-cyclopentyl-2-methoxy-benzenesulfonamide], the IC50 lay within 100 to 1000 nM. In the case of `COc1ncc(-c2sc(NC(=O)CC3CCOCC3)nc2C)cc1S(=O)(=O)Nc1cccc(O)c1` [Compound S-259] it was less than 100 nM; in that of `COc1ccc(-c2sc(NCC(C)C)nc2C)cc1S(=O)(=O)NC1CCCC(O)C1` (centres unmarked) [Compound S-223, N-(3-hydroxycyclohexyl)-5-[2-(isobutylamino)-4-methyl-thiazol-5-yl]-2-methoxy-benzenesulfonamide;2,2,2-trifluoroacetic acid], less than 100 nM. With `COc1ccc(-c2sc(NC(=O)CCC3CCCC3)nc2C)cc1S(=O)(=O)NC1CCNCC1` [Compound S-160, 3-cyclopentyl-N-[5-[4-methoxy-3-(4piperidylsulfamoyl)phenyl]-4-methyl-thiazol-2-yl]propanamide], the IC50 was less than 100 nM. In the case of `COc1ncc(-c2sc(NC(=O)CC3CCOCC3)nc2C)cc1S(=O)(=O)N[C@H]1CC[C@@H](O)CC1` [Compound S-262] it was less than 100 nM; in that of `COc1ccc(-c2sc(N[C@@H](C)C3CCCCC3)nc2C)cc1S(=O)(=O)N[C@H]1CC[C@@H](O)CC1` [Compound S-206, 5-[2-[[(1S)-1-cyclohexylethyl]amino]-4-methyl-thiazol-5-yl]-N-(4-hydroxycyclohexyl)-2-methoxy-benzenesulfonamide], 1000 to 10000 nM; in that of `COc1ccc(-c2sc(NC(C)(C)C)nc2C)cc1S(=O)(=O)NC1CCCNC1` (centres unmarked) [Compound S-220, 5-[2-(tert-butylamino)-4-methyl-thiazol-5-yl]-2-methoxy-N-(3-piperidyl)benzenesulfonamide], less than 100 nM. The result for `COc1ccc(-c2sc(NC(=O)CC3CCCC3)nc2C)cc1S(=O)(=O)N[C@H]1CC[C@H](O)CC1` [Compound S-151, 2-cyclopentyl-N-[5-[3-[(4-hydroxycyclohexyl)sulfamoyl]-4-methoxy-phenyl]-4-methyl-thiazol-2-yl]acetamide] reads less than 100 nM. In the case of `COc1ncc(-c2sc(NC(=O)CC3CCOCC3)nc2C)cc1S(=O)(=O)Nc1ccc(F)cc1F` [Compound S-260] it was less than 100 nM; in that of `COc1ccc(-c2sc(NCCC3CCCCC3)nc2C)cc1S(=O)(=O)NC1CCC(O)C1` (centres unmarked) [Compound S-214, 5-[2-(2-cyclohexylethylamino)-4-methyl-thiazol-5-yl]-N-(3-hydroxycyclopentyl)-2-methoxy-benzenesulfonamide], 100 to 1000 nM. As for `COc1ncc(-c2sc(NC(=O)CC3CCOCC3)nc2C)cc1S(=O)(=O)Nc1ccc(O)cc1` [Compound S-261], the IC50 was less than 100 nM.

One may read the IC50 as the midpoint of a concentration-inhibition curve.
